pKi: −log10 of the molar value.
Legend:
[1] = target: T1, strychnine insensitive glycine binding site associated with the NMDA receptor complex (Rattus norvegicus, UniProt P35439); experiment: affinity for the strychnine insensitive glycine binding site (procedure of Kishimoto H. et al)
T1 construct: from tissue
Method: Thus the ability to bind at the strychnine insensitive glycine binding site was determined using the procedure of Kishimoto H et al., J Neurochem 1981, 37, 1015-1024.
The affinity of the compound of the invention for the strychnine insensitive glycine binding site was determined using procedure of Kishimoto H. et al […].

formalin-induced pain = experiment: formalin test in mouse (licking time of injected paw); type: in vivo; conditions: administered orally 1 hour before formalin injection
Method: The ability of compounds of the invention to inhibit pain in mouse has been assessed in the formalin test as described by Dubuisson and Dennis (Pain, 1977, 4:161-174). In this test 20 μl of 1% formalin was injected into the plantar surface of the mouse left hind paw. The amount of time, in seconds, the animals spent licking the injected paw for the first 5 minutes (early phase) and then from 20 to 60 minutes (late phase) after formalin was used as measurement of the intensity of pain. The compounds of the invention were administered orally 1 hour before formalin injection.

| SMILES | pKi [1] | melting point [°C] | ED50 (dose required to reduce the licking time by 50%) (formalin-induced pain) [mg/kg po] |
| --- | --- | --- | --- |
| O=C(O)C1CC(=C2CCN(c3cccnc3)C2=O)c2ccc(Cl)cc2N1 (racemic) [Example 22, (±)-Sodium 7-chloro-4-(2-oxo-1-(pyridn-3yl)-pyrrolidin-3-ylidene)-1,2,3,4-tetrahydro-2-quinolinecarboxylate] | 7.90 | – | – |
| O=C(O)C1CC(=C2CCCN(c3ccccc3)C2=O)c2ccc(Cl)cc2N1 (racemic) [Example 23, (±)-7-chloro-4-(2-oxo-1-phenyl-3-piperidinylidene)-1,2,3,4-tetrahydro-2-quinolinecarboxylic acid] | – | > 130 | – |
| O=C(O)C1CC(=C2NC(=O)N(c3ccccc3)C2=O)c2ccc(Cl)cc2N1 (racemic) [Example 24, (±)-7-chloro-4-(2,5-dioxo-1-phenyl-imidazolidin-4-ylidene)-1,2,3,4-tetrahydro-2-quinolinecarboxylic acid] | 7.80 | – | – |
| O=C([O-])C1CC(C2=CCN(c3ccccc3)C2=O)c2ccc(Cl)cc2N1.[Na+] (single isomer, unassigned; (-)) [Example 2, (−)-Sodium 7-chloro-4-(1-phenyl-Δ^3-pyrrolin-2-one-3yl)-1,2,3,4-tetrahydroquinoline-2-carboxylate] | – | – | 0.03 |
| O=C([O-])C1CC(=C2CCN(c3ccccc3)C2=O)c2ccc(Cl)cc2N1.[Na+] (single isomer, unassigned; (-)) [Example 21, (−)-Sodium 7-chloro-4-(2-oxo-1-phenyl-3-pyrrolidinylidene)-1,2,3,4-tetrahydro-2-quinolinecarboxylate] | – | – | 0.14 |
| O=C(O)C1CC(=C2CCN(c3ccccc3)C2=O)c2c(Cl)cc(Cl)cc2N1 (stereo not shown) [Example 30, Sodium 5,7-dichloro-4-(2-oxo-(1-phenyl)pyrrolidin-3-ylidene)-1,2,3,4-tetrahydro-2-quinoline carboxylate(enatiomer A)] | 7.70 | – | – |

Further lines, with some results ahead:

| pKi [1] | melting point [°C] | SMILES | ED50 (dose required to reduce the licking time by 50%) (formalin-induced pain) [mg/kg po] |
| --- | --- | --- | --- |
| 7.90 | – | O=C(O)C1CC(C2=CCN(c3cccnc3)C2=O)c2ccc(Cl)cc2N1 (racemic) [Example 14, (±)-Sodium 7-chloro-4-(1-(3-pyridin)-Δ^3-pyrrolin-2-one-3yl)-1,2,3,4-tetrahydroquinoline-2-carboxylate] | – |
| 7.73 | – | O=C(O)C1CC(C2=CCCN(c3ccccc3)C2=O)c2ccc(Cl)cc2N1 (racemic) [Example 15, (±)-Sodium 7-chloro-4-(1-phenyl-Δ^3-5,6-dihydro-pyridin-2-one-3yl)-1,2,3,4-tetrahydroquinoline-2-carboxylate] | – |
| 7.80 | – | O=C(O)C1CC(C2=CCN(c3ccccc3)C2=O)c2c(Cl)cc(Cl)cc2N1 (racemic) [Example 16, (±)-Sodium 5,7-dichloro-4-(1-phenyl-Δ^3-pyrrolin-2-one-3yl)-1,2,3,4-tetrahydroquinoline-2-carboxylate] | – |
| 7.78 | – | CC(=O)Nc1ccc(N2CC=C(C3CC(C(=O)O)Nc4cc(Cl)ccc43)C2=O)cc1 (racemic) [Example 18, (+/−)-7-chloro-4-(1-(4-acetylamino)-phenyl-Δ^3-pyrrolin-2-one-3yl)-1,2,3,4-tetrahydroquinoline-2-carboxylic acid] | – |
| 8.90 | – | CS(=O)(=O)Nc1ccc(N2CC=C(C3CC(C(=O)O)Nc4cc(Cl)ccc43)C2=O)cc1 (racemic) [Example 19, (+/−)7-chloro-4-(1-(4-methanesulfonylamino)-phenyl-1-Δ^3-pyrrolin-2-one-3yl)-1,2,3,4-tetrahydroquinoline-2-carboxylic acid] | – |
| 7.15 | – | CC(=O)Nc1ccc(N2CCC(=C3CC(C(=O)O)Nc4cc(Cl)ccc43)C2=O)cc1 (racemic) [Example 25, (+/−)-7-chloro-4-(2-oxo-1-(4-acetylamino)phenyl-pyrrolidin-3-ylidene)-1,2,3,4-tetrahydro-2-quinolinecarboxylic acid] | – |
| […] | – | O=C(O)C1CC(C2=CCN(c3ccccc3)C2=O)c2ccc(Cl)cc2N1 (single isomer, unassigned; (+)) [Example 17, (+)Sodium7-chloro-4-(1-phenyl-Δ^3pyrrolin-2-one-3yl)-1,2,3,4-tetrahydroquinoline-2-carboxylate] | 0.3 |
| 8.70 | – | O=C(O)C1CC(C2=CCN(c3ccccc3)C2=O)c2c(Cl)cc(Cl)cc2N1 (stereo not shown) [Example 29, Sodium, 5,7-Dichloro-4-(2-oxo-1-phenyl-Δ^3-pyrrolin-2-one-3-yl)-1,2,3,4-tetrahydro-quinoline-2-carboxylic acid; (enatiomer A)] | – |

Source: patent publication US6495566B2, “Tetrahydroquinoline derivatives as glycine antagonists” (Smithkline Beecham Corporation, priority 1998, dated 2002)
